Experimental data as given in publication PMC5095511 (Journal of nuclear medicine : official publication, Society …, 2016).
Several values for one entry are separate records, joined by “and”; a condition that tells them apart may be missing. Equal entries are not always repeated.

Legend:
[1] = Baseline regional brain biodistribution of ^18F-FNDP in CD-1 mice; format: in vivo, mouse (CD-1); conditions: IV, mean ± SD, n=3
[2] = molecular target: T1, sEH (Mus musculus, UniProt P34914); format: in vivo, mouse (CD-1); conditions: CD-1 mouse brain, high dose of blocker nor-fluoro-FNDP
T1 sequence (P34914 1-554): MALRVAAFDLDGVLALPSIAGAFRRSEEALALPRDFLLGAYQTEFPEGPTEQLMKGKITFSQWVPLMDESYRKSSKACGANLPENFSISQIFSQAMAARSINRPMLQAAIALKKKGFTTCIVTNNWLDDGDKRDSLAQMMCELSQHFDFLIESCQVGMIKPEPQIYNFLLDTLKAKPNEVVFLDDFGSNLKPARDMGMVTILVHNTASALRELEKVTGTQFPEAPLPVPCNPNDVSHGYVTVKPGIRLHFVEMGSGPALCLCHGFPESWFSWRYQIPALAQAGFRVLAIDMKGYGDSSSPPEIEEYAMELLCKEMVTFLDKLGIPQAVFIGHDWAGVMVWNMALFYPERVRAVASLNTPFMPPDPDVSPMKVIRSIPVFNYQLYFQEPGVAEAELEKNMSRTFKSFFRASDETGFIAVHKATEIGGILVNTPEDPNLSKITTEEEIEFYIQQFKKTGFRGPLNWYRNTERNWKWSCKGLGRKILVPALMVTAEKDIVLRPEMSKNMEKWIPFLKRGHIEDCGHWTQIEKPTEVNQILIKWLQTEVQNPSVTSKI

[3] = tested on: sEH; format: in vivo, mouse (sEH-KO, C57BL/6); conditions: baseline
[4] = tested on: sEH; test: Dynamic PET imaging of baboon brain, baseline and blocking with nor-fluoro-FNDP; format: in vivo, Papio anubis (baboon)
[5] = Radiometabolite analysis of baboon arterial blood/plasma by RP-HPLC; format: in vivo, Papio anubis (baboon); conditions: 90 min post-injection
[6] = tested on: human sEH; conditions: read-out: human IC50; cited from earlier work

O=C(NCCC(c1ccccc1)c1ccccc1)c1ccc([18F])nc1 [^18F-FNDP, N-(3,3-diphenylpropyl)-6-^18F-fluoronicotinamide]
Regional brain uptake, cortex ([1]; 5 min): 4.69 ± 0.21 %ID/g tissue | Regional brain uptake, hippocampus ([1]; 5 min): 3.29 ± 0.54 %ID/g tissue | Regional brain uptake, hypothalamus ([1]; 5 min): 2.59 ± 0.18 %ID/g tissue | Regional brain uptake, rest of brain ([1]; 5 min): 3.53 ± 0.11 %ID/g tissue | Regional brain uptake, striatum ([1]; 5 min): 5.24 ± 0.45 %ID/g tissue | Regional brain uptake, cerebellum ([1]; 15 min): 1.31 ± 1.01 %ID/g tissue | Regional brain uptake, cortex ([1]; 15 min): 2.92 ± 0.36 %ID/g tissue | Regional brain uptake, hippocampus ([1]; 15 min): 2.51 ± 0.34 %ID/g tissue | Regional brain uptake, hypothalamus ([1]; 15 min): 1.66 ± 0.28 %ID/g tissue | Regional brain uptake, rest of brain ([1]; 15 min): 2.37 ± 0.34 %ID/g tissue | Regional brain uptake, striatum ([1]; 15 min): 3.29 ± 0.36 %ID/g tissue | Regional brain uptake, cerebellum ([1]; 30 min): 1.09 ± 0.16 %ID/g tissue | Regional brain uptake, cortex ([1]; 30 min): 2.07 ± 0.05 %ID/g tissue | Regional brain uptake, hippocampus ([1]; 30 min): 1.76 ± 0.15 %ID/g tissue | Regional brain uptake, hypothalamus ([1]; 30 min): 1.04 ± 0.08 %ID/g tissue | Regional brain uptake, rest of brain ([1]; 30 min): 1.64 ± 0.06 %ID/g tissue | Regional brain uptake, striatum ([1]; 30 min): 2.32 ± 0.15 %ID/g tissue | Regional brain uptake, cerebellum ([1]; 60 min): 0.52 ± 0.07 %ID/g tissue | Regional brain uptake, cortex ([1]; 60 min): 0.87 ± 0.14 %ID/g tissue | Regional brain uptake, hippocampus ([1]; 60 min): 0.81 ± 0.15 %ID/g tissue | Regional brain uptake, hypothalamus ([1]; 60 min): 0.51 ± 0.07 %ID/g tissue | Regional brain uptake, rest of brain ([1]; 60 min): 0.71 ± 0.10 %ID/g tissue | Regional brain uptake, striatum ([1]; 60 min): 1.07 ± 0.14 %ID/g tissue | Regional brain uptake, cerebellum ([1]; 90 min): 0.29 ± 0.04 %ID/g tissue | Regional brain uptake, cortex ([1]; 90 min): 0.45 ± 0.05 %ID/g tissue | Regional brain uptake, hippocampus ([1]; 90 min): 0.43 ± 0.06 %ID/g tissue | Regional brain uptake, hypothalamus ([1]; 90 min): 0.31 ± 0.05 %ID/g tissue | Regional brain uptake, rest of brain ([1]; 90 min): 0.38 ± 0.04 %ID/g tissue | Regional brain uptake, striatum ([1]; 90 min): 0.54 ± 0.07 %ID/g tissue | Specific (blocked) binding in striatum, hippocampus and cortex [2]: 90% | Regional uptake in striatum, hippocampus and cortex ([3]; C57BL6 control mice, 60 min post-injection): ~ 1 %ID/g | Reduction of uptake in sEH-KO mice as compared with controls ([3]; 60 min after radiotracer injection): ~ 90% | Blockade in all brain regions ([4]; baboon PET): 95% | VT in cerebellum (average) ([4]; baboon, baseline, Logan method): 7.9 ± 1.0 | VT in frontal/temporal gyrus and hippocampus ([4]; baboon, baseline, Logan method): > 10.1 | VT in globus pallidus, corpus callosum, white matter, hypothalamus and thalamus ([4]; baboon, baseline, Logan method): > 8.1 | VT in insula, putamen, caudate and amygdala ([4]; baboon, baseline, Logan method): > 11.5 | Specificity of sEH radiolabeling ([4]; both animal species (mouse and baboon)): up to 95% | Remaining parent compound in plasma radioactivity [5]: 20% and ~ 20%
